According to US10183950B2, “Thienopyrimidine inhibitors of atypical protein kinase C” (Cancer Research Technology Limited, priority 2011, dated 2019):

Target: T1, full-length human PKCι (Homo sapiens, UniProt P41743)
T1 construct: Recombinant, full-length human PKCι expressed in Sf21 insect cells is also commercially available; purchased; host or cells: Sf21 insect cells
T1 sequence (P41743 1-596): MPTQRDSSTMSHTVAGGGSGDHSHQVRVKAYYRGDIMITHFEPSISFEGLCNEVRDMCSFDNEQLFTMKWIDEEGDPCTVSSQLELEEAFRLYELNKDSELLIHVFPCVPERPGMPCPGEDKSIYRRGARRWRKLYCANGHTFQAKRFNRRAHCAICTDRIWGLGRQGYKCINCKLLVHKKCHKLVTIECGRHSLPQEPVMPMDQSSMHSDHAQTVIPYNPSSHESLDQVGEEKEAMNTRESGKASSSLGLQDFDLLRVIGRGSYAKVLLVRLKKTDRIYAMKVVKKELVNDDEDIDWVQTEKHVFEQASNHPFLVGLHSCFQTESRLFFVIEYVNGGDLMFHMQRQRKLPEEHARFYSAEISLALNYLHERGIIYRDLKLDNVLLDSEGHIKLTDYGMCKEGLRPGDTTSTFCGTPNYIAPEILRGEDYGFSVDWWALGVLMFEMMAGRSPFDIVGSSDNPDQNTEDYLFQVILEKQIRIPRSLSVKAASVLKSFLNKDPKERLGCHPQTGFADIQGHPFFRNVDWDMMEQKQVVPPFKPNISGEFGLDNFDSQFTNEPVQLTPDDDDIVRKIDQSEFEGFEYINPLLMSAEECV
Assay: PKCι IC50 IMAP fluorescence polarisation assay, full-length enzyme
Type: biochemical
Details: full length PKCi at 15 μM ATP; read-out: IC50 in IMAP assay against full length PKCi

Compound	IC50
O=C(Nc1cc(-c2nc(N[C@@H]3CCNC3)c3sccc3n2)ccn1)c1ccc(N2CCOCC2)cc1 [compound 621, 4-Morpholin-4-yl-N-{4-[4-((R)-pyrrolidin-3-ylamino)-thieno[3,2-d]pyrimidin-2-yl]-pyridin-2-yl}-benzamide]	0.1 to 1 µM
O=S(=O)(Nc1cc(-c2nc(N[C@@H]3CCNC3)c3sccc3n2)ccn1)C1CC1 [compound 622, Cyclopropanesulfonic acid {4-[4-((R)-pyrrolidin-3-ylamino)-thieno[3,2-d]pyrimidin-2-yl]-pyridin-2-yl}-amide]	10 to 40 µM
c1cc(-c2nc(N[C@@H]3CCNC3)c3sccc3n2)cc(NC2CCCCC2)n1 [compound 623, [2-(2-Cyclohexylamino-pyridin-4-yl)-thieno[3,2-d]pyrimidin-4-yl]-(R)-pyrrolidin-3-yl-amine]	10 to 40 µM
CC(C)Nc1cc(-c2nc(N[C@@H]3CCNC3)c3sccc3n2)ccn1 [compound 626, [2-(2-Isopropylamino-pyridin-4-yl)-thieno[3,2-d]pyrimidin-4-yl]-(R)-pyrrolidin-3-yl-amine]	1 to 10 µM
NC(=O)CN1C[C@H](Nc2nc(-c3ccnc(NC(=O)c4cccs4)c3)nc3ccsc23)[C@@H](O)C1 [compound 629, Thiophene-2-carboxylic acid {4-[4-((3S,4S)-1-carbamoylmethyl-4-hydroxy-pyrrolidin-3-ylamino)-thieno[3,2-d]pyrimidin-2-yl]-pyridin-2-yl}-amide]	1 to 10 µM
N[C@H](CNc1nc(-c2ccnc(NC(=O)c3cccs3)c2)nc2ccsc12)Cc1ccc(C(F)(F)F)cc1 [compound 630, Thiophene-2-carboxylic acid (4-{4-[(S)-2-amino-3-(4-trifluoromethyl-phenyl)-propylamino]-thieno[3,2-d]pyrimidin-2-yl}-pyridin-2-yl)-amide]	10 to 40 µM
NC(=O)CN1CC[C@@H](Nc2nc(-c3ccnc(Nc4ccccc4)c3)nc3ccsc23)C1 [compound 631, 2-{(R)-3-[2-(2-Phenylamino-pyridin-4-yl)-thieno[3,2-d]pyrimidin-4-ylamino]-pyrrolidin-1-yl}-acetamide]	10 to 40 µM
Cc1[nH]ncc1-c1nc(N[C@@H]2CCNC2)c2sccc2n1 [compound 633, [2-(5-Methyl-1H-pyrazol-4-yl)-thieno[3,2-d]pyrimidin-4-yl]-(R)-pyrrolidin-3-yl-amine]	10 to 40 µM

Results, then the molecule that gave them:

IC50	Compound
10 to 40 µM	CS(=O)(=O)Nc1cc(-c2nc(N[C@@H]3CCNC3)c3sccc3n2)ccn1 [compound 624, N-{4-[4-((R)-Pyrrolidin-3-ylamino)-thieno[3,2-d]pyrimidin-2-yl]-pyridin-2-yl}-methanesulfonamide]
10 to 40 µM	c1cc(-c2nc(N[C@@H]3CCNC3)c3sccc3n2)cc(NC2CCOCC2)n1 [compound 625, (R)-Pyrrolidin-3-yl-{2-[2-(tetrahydro-pyran-4-ylamino)-pyridin-4-yl]-thieno[3,2-d]pyrimidin-4-yl}-amine]
1 to 10 µM	O=C(Nc1cc(-c2nc(N[C@H]3CNC[C@@H]3O)c3sccc3n2)ccn1)c1cccs1 [compound 627, Thiophene-2-carboxylic acid {4-[4-((3S,4S)-4-hydroxy-pyrrolidin-3-ylamino)-thieno[3,2-d]pyrimidin-2-yl]-pyridin 2-yl}-amide]
1 to 10 µM	CN1CC[C@@H](Nc2nc(-c3ccnc(NC(=O)c4cccs4)c3)nc3ccsc23)C1 [compound 628, Thiophene-2-carboxylic acid {4-[4-((R)-1-methyl-pyrrolidin-3-ylamino)-thieno[3,2-d]pyrimidin-2-yl]-pyridin-2-yl}-amide]
1 to 10 µM	c1cc(-c2nc(N[C@@H]3CCNC3)c3sccc3n2)cc(Sc2cc(-c3nc(N[C@@H]4CCNC4)c4sccc4n3)ccn2)n1 [compound 632]
1 to 10 µM	Cc1[nH]ncc1-c1nc(NC[C@@H](N)Cc2ccccc2)c2sccc2n1 [compound 634, (S)-N*1*-[2-(5-Methyl-1H-pyrazol-4-yl)-thieno[3,2-d]pyrimidin-4-yl]-3-phenyl-propane-1,2-diamine]
